Results published in patent US4263280A, “Synergistic mixtures” (priority 1978, dated 1981).
Counter-ions that a name gives are not always drawn.

What was measured:
[1] = tested on: Pseudomonas aeruginosa 1140; experiment: in vitro MIC, chessboard microdilution, Pseudomonas aeruginosa 1140; format: cell-based
Procedure: (§1) The combination substances A and B are diluted in DST broth OXOID in chessboard arrangement with the aid of microtitre system in 1:2 steps. All the concentrations of substance A are combined with all the concentrations of substance B and then inoculated with a standardised bacteria suspension (final concentration about 10^4 bacilli/ml). After incubation for 18 hours at 37° C., the inhibition of the bacterial growth is determined. The inhibiting concentrations are converted by the method of Kerry et al. (J. Antimicrob. […] By way of example, a number of the MIC values for the action of cefsulodin sodium, mecillinam, mezlocillin and gentamicin alone against a number of micro-organisms, as well as the MIC values for a number of mixtures in which synergism occurs, are reported in Table 1.

[2] = tested on: Pseudomonas aeruginosa 410; experiment: in vitro MIC, chessboard microdilution, Pseudomonas aeruginosa 410; format: cell-based
Procedure: as §1

[3] = tested on: Proteus rettgeri 1121; experiment: in vitro MIC, chessboard microdilution, Proteus rettgeri 1121; format: cell-based; conditions: for MIC: Providencia rettgeri, 1121, read-out: MIC, antibiotic alone
Procedure: as §1

[4] = tested on: Klebsiella pneumoniae 329; experiment: systemic infection in mice, survival, Klebsiella pneumoniae 329; format: in vivo; conditions: fifth day
Procedure: (§2) The combination substances A and B are diluted in 1:3 to 1:3.3 steps such that the average concentration contains the respective amount of substance A and substance B corresponding to the ED50.
(§3) Female MF 2 mice weighing 18 to 22 g are divided at random into groups (n=20) and infected intraperitoneally with a standardised bacteria suspension which, according to strain, represents 5 to >20 LD50.
(§4) Immediately after the infection, and 3 hours later, the mice are treated in groups subcutaneously with dilutions of substances A and B as well as with combinations thereof. These combinations are prepared shortly before administration by mixing each dilution of substance A with each dilution of substance B. The survival rates are determined on the fifth day after the infection. The survival rates of mice which are determined with each of substances A and B alone are compared with those obtained with the combinations of these substances. A combination which has protected more animals from death than would be expected from the independent action of the substances, is designated as having synergistic action.
(§5) The survival rates, expressed as percentages of surviving animals, found in infections with a number of pure micro-organisms and in polyinfections is reported in Table 2 for cefsulodin sodium, mecillinam, mezlocillin, gentamicin and CGP 14 221/E, as well as for corresponding mixtures.

[5] = tested on: Pseudomonas aeruginosa + Klebsiella pneumoniae; experiment: experimental pyelonephritis (polyinfection) in mice, Pseudomonas aeruginosa + Klebsiella pneumoniae; format: in vivo; conditions: percentage of animals
Procedure: (§6) Mice are treated intravenously with 10 mg/kg of carrageenin. Seven days later they are infected with a standardised suspension of bacteria. […] Two days after the last treatment, the mice are sacrificed, dissected and examined for the number of germs in the kidneys.

[6] = tested on: Pseudomonas aeruginosa + Escherichia coli; experiment: experimental pyelonephritis (polyinfection) in mice, Pseudomonas aeruginosa + Escherichia coli; format: in vivo; conditions: percentage of animals
Procedure: as §6

[7] = tested on: Escherichia coli 576; experiment: in vitro MIC, chessboard microdilution, Escherichia coli 576; format: cell-based
Procedure: as §1

[8] = known β-lactamase inhibitors themselves; cited from earlier work
[9] = tested on: Klebsiella pneumoniae 1136; experiment: in vitro MIC, chessboard microdilution, Klebsiella pneumoniae 1136; format: cell-based; conditions: for MIC: Klebsiella pneumoniae, 1136, alone, 18 hours, 37° C., read-out: MIC, antibiotic alone
Procedure: as §1

[10] = tested on: Escherichia coli 12-44; experiment: in vitro MIC, chessboard microdilution, Escherichia coli 12-44; format: cell-based; conditions: for MIC: Escherichia coli, 1244, alone, 18 hours, 37° C., read-out: MIC, antibiotic alone
Procedure: as §1

[11] = tested on: Escherichia coli 205; experiment: systemic infection in mice, survival, Escherichia coli 205; format: in vivo; conditions: fifth day
Procedure: as §2, §3, §4, §5

[12] = tested on: Kiebsiella pneumoniae 1132; experiment: in vitro MIC, chessboard microdilution, Klebsiella pneumoniae 1132; format: cell-based; conditions: for MIC: Klebsiella pneumoniae, 1132, alone, 18 hours, 37° C., read-out: MIC, antibiotic alone
Procedure: as §1

[13] = tested on: Pseudomonas aeruginosa 799A; experiment: in vitro MIC, chessboard microdilution, Pseudomonas aeruginosa 799A; format: cell-based; conditions: for MIC: Pseudomonas aeruginosa, 799A, alone, 18 hours, 37° C., read-out: MIC, antibiotic alone
Procedure: as §1

[14] = tested on: Pseudomonas aeruginosa G 121; experiment: in vitro MIC, chessboard microdilution, Pseudomonas aeruginosa G 121; format: cell-based; conditions: for MIC: Pseudomonas aeruginosa, G121, alone, 18 hours, 37° C., read-out: MIC, antibiotic alone
Procedure: as §1

[15] = tested on: Staphylococcus aureus; experiment: in vitro MIC, chessboard microdilution, Staphylococcus aureus; format: cell-based; conditions: for MIC: Staphylococcus aureus, alone, 18 hours, 37° C., read-out: MIC, antibiotic alone
Procedure: as §1

[16] = tested on: Proteus mirabilis 1077; experiment: in vitro MIC, chessboard microdilution, Proteus mirabilis 1077; format: cell-based; conditions: for MIC: Proteus mirabilis, 1077, alone, 18 hours, 37° C., read-out: MIC, antibiotic alone
Procedure: as §1

[17] = tested on: Klebsiella pneumoniae 1; experiment: in vitro MIC, chessboard microdilution, Klebsiella pneumoniae 1; format: cell-based; conditions: for MIC: Klebsiella pneumoniae, 1, alone, 18 hours, 37° C., read-out: MIC, antibiotic alone
Procedure: as §1

[18] = tested on: Escherichia coli 205 RTEM^+; experiment: systemic infection in mice, survival, Escherichia coli 205 RTEM+; format: in vivo; conditions: fifth day
Procedure: as §2, §3, §4, §5

[19] = tested on: Klebsiella pneumoniae 329 + Escherichia coli 205; experiment: systemic polyinfection in mice, survival, Klebsiella pneumoniae 329 + Escherichia coli 205; format: in vivo; conditions: fifth day
Procedure: as §2, §3, §4, §5

[20] = tested on: Klebsiella pneumoniae 327; experiment: systemic infection in mice, survival, Klebsiella pneumoniae 327; format: in vivo; conditions: fifth day
Procedure: as §2, §3, §4, §5

[21] = tested on: enterobacteria, such as Escherichia coli and Klebsiella pneumoniae; conditions: cited from earlier work
[22] = tested on: anaerobei, for example Bacteroides; conditions: cited from earlier work
[23] = tested on: Gram-negative cocci, Gram-positive cocci and bacteria, and especially against Pseudomonas strains; conditions: carbenicillin-sensitive and carbenicillin-resistant Pseudomonas; cited from earlier work
[24] = in combination with Cefsulodin-Na 12.5 mcg/ml
[25] = in combination with Gentamicin 0.25 mcg/ml
[26] = in combination with Mecillinam 0.25 mcg/ml

Gentamicin
MIC, antibiotic alone ([1]; alone, 18 hours, 37° C.): 32 µg/mL
MIC, antibiotic B in combination with A ([1]; in combination with Cefsulodin-Na 2 mcg/ml): 4 µg/mL
MIC, antibiotic alone ([2]; alone, 18 hours, 37° C.): 0.5 µg/mL
MIC, antibiotic B in combination with A ([2]; in combination with Cefsulodin-Na 0.06 mcg/ml): 0.25 µg/mL
MIC, antibiotic alone ([3]; alone, 18 hours, 37° C.): 1 µg/mL
MIC, antibiotic B in combination with A ([3]; in combination with Cefsulodin-Na 0.8 mcg/ml): 0.5 µg/mL
surviving animals, antibiotic alone ([4]; 0.2 mg/kg s.c.): 30%
Clearance of the kidneys from both micro-organisms, antibiotic alone ([5]; 0.5 mg/kg s.c.): 0%
Clearance of the kidneys from both micro-organisms, antibiotic alone ([5]; 2.5 mg/kg s.c.): 40%
Clearance of the kidneys from both micro-organisms, antibiotic alone ([6]; 1 mg/kg s.c.): 0%
MIC, antibiotic alone ([7]; alone, 18 hours, 37° C.): 2 µg/mL
MIC, antibiotic B in combination with A ([7]; in combination with Cefsulodin-Na 32 mcg/ml): 0.25 µg/mL

O=C(O)[C@H]1/C(=C/CO)O[C@@H]2CC(=O)N21 [clavulanic acid]
antibiotic action [8]: insignificant antibiotic action

CC1(C)S[C@@H]2[C@H](/N=C/N3CCCCCC3)C(=O)N2[C@H]1C(=O)O [Mecillinam]
MIC ([3]; alone, 18 hours, 37° C.): 3.2 µg/mL
MIC, antibiotic B in combination with A ([3]; in combination with Cefsulodin-Na 0.4 mcg/ml): 1.6 µg/mL
surviving animals, antibiotic alone ([4]; 300 mg/kg s.c.): 0%
MIC [9]: 1 µg/mL
MIC, antibiotic B in combination with A [9, 24]: 0.25 µg/mL
MIC [10]: 2 µg/mL
MIC, antibiotic B in combination with A [10, 24]: 0.12 µg/mL
surviving animals, antibiotic alone ([11]; 1 mg/kg s.c.): 0%
surviving animals, antibiotic alone ([11]; 2 mg/kg s.c.): 0%
MIC [12]: 1 µg/mL
MIC, antibiotic B in combination with A ([12]; in combination with Cefsulodin-Na 6.2 mcg/ml): 0.25 µg/mL
MIC [13]: 1000 µg/mL
MIC, antibiotic B in combination with A ([13]; in combination with Cefsulodin-Na 0.25 mcg/ml): 32 µg/mL

CC1(C)S[C@@H]2[C@H](NC(=O)[C@H](NC(=O)N3CCN(S(C)(=O)=O)C3=O)c3ccccc3)C(=O)N2[C@H]1C(=O)O [Mezlocillin]
MIC [14]: 25 µg/mL
MIC, antibiotic B in combination with A ([14]; in combination with Cefsulodin-Na 0.04 mcg/ml): 12.5 µg/mL
surviving animals, antibiotic alone ([4]; 300 mg/kg s.c.): 0%
surviving animals, antibiotic alone ([11]; 50 mg/kg s.c.): 0%
MIC [15]: 3.2 µg/mL
MIC, antibiotic B in combination with A ([15]; in combination with Cefsulodin-Na 0.2 mcg/ml): 1.6 µg/mL
MIC [16]: 1 µg/mL
MIC, antibiotic B in combination with A [16, 24]: 0.25 µg/mL
MIC [17]: 1.25 µg/mL
MIC, antibiotic B in combination with A ([17]; in combination with Cefsulodin-Na 25 mcg/ml): 0.16 µg/mL

CC1(C)[C@H](C(=O)O)N2C(=O)C[C@H]2S1(=O)=O [penicillanic acid 4,4-dioxide]
antibiotic action [8]: insignificant antibiotic action

CN(C)CCn1nnnc1SCC1=C(C(=O)O)N2C(=O)[C@@H](NC(=O)Cc3csc(N)n3)[C@H]2SC1 [CGP 14221/E, 7[2(2-lmino-1,3-thiazolin-4-yl)acetamido3-[1(3-dimethylamino)-tetrazol-5-ylthio-methyl3-cephem-4-carboxylic acid hydrochloride]
surviving animals, antibiotic alone ([18]; 1.2 mg/kg s.c.): 10%
surviving animals, antibiotic alone ([19]; 20 mg/kg s.c.): 0%
surviving animals, antibiotic alone ([11]; 0.62 mg/kg s.c.): 0%
surviving animals, antibiotic alone ([11]; 2.5 mg/kg s.c.): 0%
surviving animals, antibiotic alone ([20]; 20 mg/kg s.c.): 0%
surviving animals, antibiotic alone ([20]; 40 mg/kg s.c.): 0%

NC(=O)c1cc[n+](CC2=C(C(=O)O)N3C(=O)[C@@H](NC(=O)[C@@H](c4ccccc4)S(=O)(=O)[O-])[C@H]3SC2)cc1 [Cefsulodin-Na, sodium salt of N-[7β-(α-sulfophenylacetamido)ceph-3-em-3-yl-methyl]-4'-carbamoylpyridinium-4-carboxylate]
MIC ([1]; Pseudomonas aeruginosa, 1140, alone, 18 hours, 37° C., read-out: MIC, antibiotic alone): 8 µg/mL
MIC, antibiotic A in combination with B ([1]; in combination with Gentamicin 4 mcg/ml): 2 µg/mL
MIC [14]: 1.2 µg/mL
MIC, antibiotic A in combination with B ([14]; in combination with Mezlocillin 12.5 mcg/ml): 0.04 µg/mL
MIC ([2]; Pseudomonas aeruginosa, 410, alone, 18 hours, 37° C., read-out: MIC, antibiotic alone): 2 µg/mL
MIC, antibiotic A in combination with B [2, 25]: 0.06 µg/mL
MIC ([3]; alone, 18 hours, 37° C.): 12.5 µg/mL
MIC, antibiotic A in combination with B ([3]; in combination with Gentamicin 0.5 mcg/ml): 0.8 µg/mL
MIC, antibiotic A in combination with B ([3]; in combination with Mecillinam 1.6 mcg/ml): 0.4 µg/mL
surviving animals, antibiotic alone ([4]; 40 mg/kg s.c.): 0%
surviving animals, antibiotic alone ([4]; 50 mg/kg s.c.): 0%
surviving animals, antibiotic alone ([4]; 80 mg/kg s.c.): 5%
surviving animals, antibiotic alone ([18]; 40 mg/kg s.c.): 0%
surviving animals, antibiotic alone ([19]; 100 mg/kg s.c.): 0%
MIC [9]: 50 µg/mL
MIC, antibiotic A in combination with B [9, 26]: 12.5 µg/mL
Clearance of the kidneys from both micro-organisms, antibiotic alone ([5]; 25 mg/kg s.c.): 10%
MIC [10]: 25 µg/mL
MIC, antibiotic A in combination with B ([10]; in combination with Mecillinam 0.12 mcg/ml): 12.5 µg/mL
surviving animals, antibiotic alone ([11]; 25 mg/kg s.c.): 5%
surviving animals, antibiotic alone ([11]; 40 mg/kg s.c.): 10%
antibiotic action against enterobacteria [21]: relatively insignificant action
Clearance of the kidneys from both micro-organisms, antibiotic alone ([6]; 25 mg/kg s.c.): 0%
antibiotic action against anaerobei [22]: relatively insignificant action
MIC [15]: 3.2 µg/mL
MIC, antibiotic A in combination with B ([15]; in combination with Mezlocillin 1.6 mcg/ml): 0.2 µg/mL
MIC ([7]; Escherichia coli, 576, alone, 18 hours, 37° C., read-out: MIC, antibiotic alone): 64 µg/mL
MIC, antibiotic A in combination with B [7, 25]: 32 µg/mL
MIC [12]: 25 µg/mL
MIC, antibiotic A in combination with B [12, 26]: 6.2 µg/mL
antibiotic action [23]: directed against Gram-negative cocci, Gram-positive cocci and bacteria, and especially against Pseudomonas strains, both carbenicillin-sensitive and carbenicillin-resistant
MIC [16]: 50 µg/mL
MIC, antibiotic A in combination with B ([16]; in combination with Mezlocillin 0.25 mcg/ml): 12.5 µg/mL
MIC [13]: 1 µg/mL
MIC, antibiotic A in combination with B ([13]; in combination with Mecillinam 32 mcg/ml): 0.25 µg/mL
MIC [17]: 50 µg/mL
MIC, antibiotic A in combination with B ([17]; in combination with Mezlocillin 0.16 mcg/ml): 25 µg/mL
surviving animals, antibiotic alone ([20]; 50 mg/kg s.c.): 0%
surviving animals, antibiotic alone ([20]; 100 mg/kg s.c.): 0%
